Assays:
[1] = Slurry in water at ambient temperature (XRPD); format: physicochemical
[2] = Interconversion slurry experiments; details: interconversion slurries, ambient temperature to 65° C.
Procedure: Mixtures of Form H and Form I with Form B were utilized in these interconversion slurry experiments. […] The interconversion slurries were performed at ambient and elevated (65° C.) temperatures in various solvents and solvent mixtures.

[3] = Stability stress studies on Form B (RH/temperature exposure, XRPD); format: physicochemical
Procedure: Stability stress studies were conducted on Form B by exposing samples to three conditions: 57.5% RH/RT; 97.3% RH/RT, and 75% RH/40° C. and collecting XRPD data at two time points (14 and 28 days).

[4] = Dynamic vapor sorption (DVS); format: physicochemical; details: for Hysteresis: in % (unit assumed); for weight gain during sorption: 5-95% RH; for XRPD pattern of the post-DVS sample: after DVS experiment; for hygroscopicity: judged from DVS sorption/desorption
Procedure: Moisture sorption/desorption data were collected on a Surface Measurement System DVS Intrinsic instrument. Samples were not dried prior to analysis. Sorption and desorption data were collected over a range from 5% to 95% RH to 5% RH at 10% RH increments under a nitrogen purge. The equilibrium criterion used for analysis was less than 0.0100% weight change in 5 minutes with a maximum equilibration time of 3 hours. Data were not corrected for the initial moisture content of the samples.

physchem = details: water

Compound | Desorp Mass Change (%) ([4]; DVS cycle 1, target RH 5%) | Sorp Mass Change (%) ([4]; DVS cycle 1, target RH 5%) | Desorp Mass Change (%) ([4]; DVS cycle 1, target RH 15%) | Sorp Mass Change (%) ([4]; DVS cycle 1, target RH 15%) | Hysteresis ([4]; DVS cycle 1, target RH 15%) | Desorp Mass Change (%) ([4]; DVS cycle 1, target RH 25%) | Sorp Mass Change (%) ([4]; DVS cycle 1, target RH 25%) | Hysteresis ([4]; DVS cycle 1, target RH 25%) | Desorp Mass Change (%) ([4]; DVS cycle 1, target RH 35%) | Sorp Mass Change (%) ([4]; DVS cycle 1, target RH 35%) | Hysteresis ([4]; DVS cycle 1, target RH 35%) | Desorp Mass Change (%) ([4]; DVS cycle 1, target RH 45%) | Sorp Mass Change (%) ([4]; DVS cycle 1, target RH 45%) | Hysteresis ([4]; DVS cycle 1, target RH 45%) | Desorp Mass Change (%) ([4]; DVS cycle 1, target RH 55%) | Sorp Mass Change (%) ([4]; DVS cycle 1, target RH 55%) | Hysteresis ([4]; DVS cycle 1, target RH 55%) | Desorp Mass Change (%) ([4]; DVS cycle 1, target RH 65%) | Sorp Mass Change (%) ([4]; DVS cycle 1, target RH 65%) | Hysteresis ([4]; DVS cycle 1, target RH 65%) | other results
CN(C)C(=O)Nc1cc(Oc2cnc3nc(Nc4cc(C(F)(F)F)cn(C)c4=O)n(C)c3c2C#N)ccn1 [Form B] | −0.0297 | 0.0003 | 0.0109 | 0.0327 | −0.0218 | 0.048 | 0.0627 | −0.0147 | 0.0903 | 0.0974 | −0.0071 | 0.1586 | 0.1439 | 0.0147 | 0.2045 | 0.1803 | 0.0241 | 0.2463 | 0.2227 | 0.0235 | solid form after slurry in water (XRPD) ([1]; 5 days): remained unchanged; relative stability of anhydrous forms [2]: likely the most stable anhydrous form under the tested conditions; XRPD Result ([3]; 57.5% RH/RT, 14 days): Form B; XRPD Result ([3]; 57.5% RH/RT, 28 days): Form B; stability under stress conditions ([3]; 57.5% RH/RT, 97.3% RH/RT, 75% RH/40° C., 14 and 28 days): stable at the tested stress conditions; XRPD Result ([3]; 75.3% RH/40° C., 14 days): Form B; XRPD Result ([3]; 75.3% RH/40° C., 28 days): Form B; XRPD Result ([3]; 97.3% RH/RT, 14 days): Form B; XRPD Result ([3]; 97.3% RH/RT, 28 days): Form B; weight gain during sorption ([4]; DVS): 0.43%; XRPD pattern of the post-DVS sample [4]: consistent with Form B; hygroscopicity [4]: non-hygroscopic
CN(C)C(=O)Nc1cc(Oc2cnc3nc(Nc4cc(C(F)(F)F)cn(C)c4=O)n(C)c3c2C#N)ccn1 [Form F] | −0.2589 | 0.0100 | −0.2193 | −0.0114 | −0.2079 | −0.1841 | −0.0296 | −0.1545 | −0.1477 | −0.0296 | −0.1181 | −0.1031 | −0.0202 | −0.0829 | −0.0428 | 0.0018 | −0.0446 | 0.0238 | 0.0282 | −0.0044 | solid form after slurry in water (XRPD) ([1]; 3 days): converted completely to Form C; Desorp Mass Change (%) ([4]; DVS cycle 1, target RH 75%): 0.0797%; Sorp Mass Change (%) ([4]; DVS cycle 1, target RH 75%): 0.0741%; Hysteresis ([4]; DVS cycle 1, target RH 75%): 0.0057; Desorp Mass Change (%) ([4]; DVS cycle 1, target RH 85%): 0.1545%; Sorp Mass Change (%) ([4]; DVS cycle 1, target RH 85%): 0.1344%; Hysteresis ([4]; DVS cycle 1, target RH 85%): 0.0201; Desorp Mass Change (%) ([4]; DVS cycle 1, target RH 95%): 0.2669%; Sorp Mass Change (%) ([4]; DVS cycle 1, target RH 95%): 0.2669%; weight gain during sorption ([4]; DVS): 0.3%; weight loss during the desorption step ([4]; DVS, 95-5% RH): 0.5%; XRPD pattern of the post-DVS sample [4]: consistent with Form F; hygroscopicity [4]: non-hygroscopic; solubility (physchem): < 1 mg/mL

Reference: patent US20240368157A1, “FORMS AND COMPOSITIONS OF A JAK2 INHIBITOR” (Ajax Therapeutics, Inc., priority 2023, published 2024)
